The values below come from US8536164B2, “Fused pyridine compounds as casein kinase inhibitors” (Pfizer Inc., priority 2010, dated 2013).

Experiment [1] deals with CKIδ wild type (Homo sapiens, UniProt P48730). Nature of the experiment: CK1δ kinase assay (Kinase-Glo). The experiment is classed as biochemical. Particulars: 10 μM ATP, 2 nM CKIδ, 85 min at 25° C.; read-out: CK1 δ IC50. As to the method: The CK1δ kinase assay was performed in a 40 μl final volume in buffer containing 50 mM Tris, pH 7.5, 10 mM MgCl2, 1 mM dithiothreitol, 100 μg/mL BSA with 10 μM ATP, 2 nM CKIδ wild type, and 42 μM peptide substrate PLSRTLp[…] (Flotow et al., 1990) in the presence of 1 μl of CKIδ inhibitor or 4% DMSO. The reaction was incubated for 85 min at 25° C.; detection was carried out as described for the Kinase-Glo Assay (Promega). Luminescent output was measured on the Perkin Elmer Envision plate reader (PerkinElmer, Waltham, Mass.).
CKIδ wild type, sequence (P48730 whole entry): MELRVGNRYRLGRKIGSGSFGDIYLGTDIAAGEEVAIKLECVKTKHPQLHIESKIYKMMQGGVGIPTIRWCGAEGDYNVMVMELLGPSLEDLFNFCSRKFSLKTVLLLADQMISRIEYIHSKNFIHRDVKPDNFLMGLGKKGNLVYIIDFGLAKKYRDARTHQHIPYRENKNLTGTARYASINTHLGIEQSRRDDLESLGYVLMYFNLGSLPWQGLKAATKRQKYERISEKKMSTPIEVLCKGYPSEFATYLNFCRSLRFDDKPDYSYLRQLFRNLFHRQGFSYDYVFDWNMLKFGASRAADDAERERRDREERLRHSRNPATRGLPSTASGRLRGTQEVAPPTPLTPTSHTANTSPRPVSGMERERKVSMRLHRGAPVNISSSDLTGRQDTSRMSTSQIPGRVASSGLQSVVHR
A general note: Kinase-Glo reads ATP consumption through a luciferase reaction.

For experiment [2], the target named is CKI ε wild type (Homo sapiens, UniProt P49674). In words: CK1ε kinase assay (Kinase-Glo). The experiment is classed as biochemical. To be noted: 10 μM ATP, 2.5 nM CKI ε, 70 min at 25° C.; read-out: CK1 ε:IC50. As to the method: The CK1ε kinase assay was performed in a 40-μl final volume in buffer containing 50 mM Tris, pH 7.5, 10 mM MgCl2, 1 mM dithiothreitol, 100 μg/mL BSA with 10 μM ATP, 2.5 nM CKI ε wild type, and 42 μM peptide substrate PLSRTLp[…] (Flotow et al., 1990) in the presence of 1 μl of CKI ε inhibitor or 4% DMSO. The reaction was incubated for 70 min at 25° C.; detection was carried out as described for the Kinase-Glo Assay (Promega). Luminescent output was measured on the Perkin Elmer Envision plate reader (PerkinElmer, Waltham, Mass.).
CKI ε wild type, sequence (P49674 whole entry): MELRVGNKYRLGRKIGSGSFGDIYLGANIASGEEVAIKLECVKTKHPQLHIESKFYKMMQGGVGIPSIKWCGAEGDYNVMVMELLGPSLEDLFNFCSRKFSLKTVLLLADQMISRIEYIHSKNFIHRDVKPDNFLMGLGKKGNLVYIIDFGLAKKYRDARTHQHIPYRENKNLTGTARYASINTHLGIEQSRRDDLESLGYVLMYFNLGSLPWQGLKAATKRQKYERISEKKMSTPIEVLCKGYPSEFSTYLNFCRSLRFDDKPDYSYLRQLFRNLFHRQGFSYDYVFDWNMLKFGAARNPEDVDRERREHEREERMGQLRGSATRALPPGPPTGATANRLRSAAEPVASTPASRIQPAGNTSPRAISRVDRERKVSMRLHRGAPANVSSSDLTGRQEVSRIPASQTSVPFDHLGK

For experiment [3], the target named is T1, human CK1δ (Cos 7 cells cotransfected with mouse Per3-GFP) (Homo sapiens, UniProt P48730).
T1 construct: His tag of the vector pcDNA4/hisA (only the vector name is printed); expressed in transfected cells; host or cells: Cos 7 cells
T1 sequence (P48730 whole entry): as the sequence (P48730 whole entry) above
In words: CK1 WCA HCS nuclear translocation assay (CK1δ). The experiment is classed as cell-based. Particulars: inhibition of mPer3-GFP translocation to the nucleus, overnight exposure, read-out: CK1 δ WCA EC50. On the procedure:
CK1 WCA HCS Nuclear Translocation Assay.
Cos 7 cells were maintained at 37° C. in 5% CO2 in Dulbecco's Modified Eagle Medium (Gibco 11995) supplemented with 10% fetal bovine serum. Log-phase cells were dislodged with 5 min treatment of TrypLE Express (Gibco 12605) and viable cell count was determined with Cedex cell counter. Cells were diluted in DMEM medium to a density of 1.5e5 viable cells/mL in ⅔ of the final volume of final transfected cell mix. Cells were cotransfected with two plasmid DNAs, mouse Per3-GFP (green fluorescent protein) in pd2EGFP-N1 vector and human CKI in pcDNA4/hisA vector (for CK1Epsilon at a ratio of 1:5 respectively; for CK1δ at a ratio of 1:11 respectively), using Lipofectamine 2000 reagent (Invitrogen) according to the manufacturer's recommendations. The transfection mix contained approximately 0.83 μg/mL of DNA and 6 μL/mL of Lipofectamine 2000, in a total of ⅓ of the final transfection volume in Opti-MEM I medium (Invitrogen). After 20 min at rt, the cell mix was combined with the DNA transfection mix, per manufacturer instructions. 50 μL of the transfected cell suspension was dispensed per well by multidrop dispenser into Greiner 384-well Cellcoat (PDL) plates (Greiner #781946).
Compounds were solubilized in 100% DMSO, diluted with Opti-MEM I to a 4× concentration before addition to plated cells. After overnight exposure at 37° C. in a CO2 incubator, cells were fixed by the addition of 12% paraformaldehyde (Electron Microscopy Sciences, Hatfield, Pa.) in phosphate-buffered saline (PBS) with 20% sucrose to a final concentration of 4%, and then the cells were incubated for 30 min at rt. Fixative was removed, and cells were washed with PBS and then stained with 0.4 μg/ml Hoechst dye (Invitrogen) in blocking buffer containing 4% goat serum (Vector Labs s-1000) and 0.1% TritonX (Sigma T8787) for 1 h. Cells were washed again with PBS and stored at 4° C. in PBS or scanned immediately with the Cellomics ArrayScan VTI. CKIδ dependent nuclear localization of the GFP-tagged mPer3 protein was quantitated using the Cellomics ArrayScan VTI system utilizing the Cytoplasm to Nucleus translocation bioapplication to calculate the Nuclear-Cytoplasmic Intensity difference. Inhibitors of CK1 δ/ε were tested across a dose response curve to evaluate their ability to inhibit mPer3-GFP translocation to the nucleus. Cells with a total intensity of mPER3:GFP expression equal to or greater than 20,000 are included in analysis.

What is called IC50 is the concentration needed to halve the response being measured. As usually defined, the EC50 is the concentration at which the effect is half-maximal. As for `Cn1cc(-c2ccnc3c2C(=O)N(CCOC(C)(C)C)C3)c(-c2ccc(F)cc2)n1` [Example 30, 6-(2-tert-butoxyethyl)-4-[3-(4-fluorophenyl)-1-methyl-1H-pyrazol-4-yl]-6,7-dihydro-5H-pyrrolo[3,4-b]pyridin-5-one], the results for the half-inhibitory concentration (IC50) in experiment [1] and in experiment [2] were 27.7 nM and 149 nM, respectively. The half-maximal effective concentration (EC50) in experiment [3] is 159 nM.

Turning to `Cn1cc(-c2ccnc3c2C(=O)N(Cc2cccc(C#N)c2)C3)c(-c2ccc(F)cc2)n1` [Example 41, 3-({4-[3-(4-fluorophenyl)-1-methyl-1H-pyrazol-4-yl]-5-oxo-5,7-dihydro-6H-pyrrolo[3,4-b]pyridin-6-yl}methyl)benzonitrile], the IC50 in experiment [1] came to 20.5 nM; in experiment [2], 108 nM. Further, the EC50 in experiment [3] worked out at 65.5 nM.

As to `Cn1cc(-c2ccnc3c2C(=O)N([C@H]2[C@@H]4COC[C@@H]42)C3)c(-c2ccc(F)cc2)n1` [Example 45, 4-[3-(4-fluorophenyl)-1-methyl-1H-pyrazol-4-yl]-6-[(1R,5S,6r)-3-oxabicyclo[3.1.0]hex-6-yl]-6,7-dihydro-5H-pyrrolo[3,4-b]pyridin-5-one], the IC50 in experiment [1] was found to be 19.5 nM; in experiment [2] it was 87 nM. Besides, the EC50 in experiment [3] is 167 nM.

As for `Cn1cc(-c2ccnc3c2C(=O)N(CC2CC2)C3)c(-c2ccc(F)cc2)n1` [Example 37, 6-(cyclopropylmethyl)-4-[3-(4-fluorophenyl)-1-methyl-1H-pyrazol-4-yl]-6,7-dihydro-5H-pyrrolo[3,4-b]pyridin-5-one], the values for the half-inhibitory concentration (IC50) in experiment [1] and in experiment [2] were 12.9 nM and 82.5 nM, respectively. In addition, the EC50 in experiment [3] was 74.1 nM.

With `COCCN1Cc2nccc(-c3cn(C)nc3-c3ccc(F)cc3)c2C1=O` [Example 42, 4-[3-(4-fluorophenyl)-1-methyl-1H-pyrazol-4-yl]-6-(2-methoxyethyl)-6,7-dihydro-5H-pyrrolo[3,4-b]pyridin-5-one], the concentration for half-maximal inhibition (IC50) is 67.3 nM in experiment [1] and 386 nM in experiment [2]. In experiment [3], the EC50 was found to be 623 nM.

Turning to `Cn1cc(-c2ccnc3c2C(=O)N(CC2CCOC2)C3)c(-c2ccc(F)cc2)n1` (stereo not drawn) [Example 27, 4-[3-(4-fluorophenyl)-1-methyl-1H-pyrazol-4-yl]-6-(tetrahydrofuran-3-ylmethyl)-6,7-dihydro-5H-pyrrolo[3,4-b]pyridin-5-one], the IC50 in experiment [1] amounted to 35.3 nM; in experiment [2], 210 nM. The 50% effective concentration (EC50) in experiment [3] was found to be 369 nM.

For `Cn1cc(-c2ccnc3c2C(=O)N(CCC#N)C3)c(-c2ccc(F)cc2)n1` [Example 40, 3-{4-[3-(4-fluorophenyl)-1-methyl-1H-pyrazol-4-yl]-5-oxo-5,7-dihydro-6H-pyrrolo[3,4-b]pyridin-6-yl}propanenitrile], the 50% inhibitory concentration (IC50) in experiment [1] amounted to 11.1 nM; in experiment [2], 47.1 nM. Also, the EC50 in experiment [3] was 53.7 nM.

`Cc1cc(CN2Cc3nccc(-c4cn(C)nc4-c4ccc(F)cc4)c3C2=O)nn1C` [Example 28, 6-[(1,5-dimethyl-1H-pyrazol-3-yl)methyl]-4-[3-(4-fluorophenyl)-1-methyl-1H-pyrazol-4-yl]-6,7-dihydro-5H-pyrrolo[3,4-b]pyridin-5-one]: the concentration for half-maximal inhibition (IC50) in experiment [1] was found to be 15.7 nM; in experiment [2] it was 86.4 nM. In addition, the EC50 in experiment [3] was 66.4 nM.

With `CNC1CCc2c(-c3cn(C)nc3-c3ccc(F)cc3)ccnc21` (stereo not drawn) [Example 25, 4-[3-(4-fluorophenyl)-1-methyl-1H-pyrazol-4-yl]-N-methyl-6,7-dihydro-5H-cyclopenta[b]pyridin-7-amine], the IC50 in experiment [1] came out at 17.4 nM; in experiment [2], 83.7 nM. Also, the EC50 in experiment [3] came to 59.8 nM.

Regarding `Cn1cc(-c2ccnc3c2C(=O)N(C24CC(C2)C4)C3)c(-c2ccc(F)cc2)n1` [Example 48, 6-bicyclo[1.1.1]pent-1-yl-4-[3-(4-fluorophenyl)-1-methyl-1H-pyrazol-4-yl]-6,7-dihydro-5H-pyrrolo[3,4-b]pyridin-5-one], the IC50 amounted to 18.4 nM in experiment [1] and 80.7 nM in experiment [2]. The concentration giving a half-maximal response (EC50) in experiment [3] turned out to be 130 nM.

For `Cn1cc(-c2ccnc3c2CCC3O)c(-c2ccc(F)cc2)n1` (stereo not drawn) [Example 24, 4-[3-(4-fluorophenyl)-1-methyl-1H-pyrazol-4-yl]-6,7-dihydro-5H-cyclopenta[b]pyridin-7-ol], the IC50 in experiment [1] is 28.5 nM; in experiment [2] it was 149 nM. In addition, the EC50 in experiment [3] came out at 266 nM.

As to `CC(C)CN1Cc2nccc(-c3cn(C)nc3-c3ccc(F)cc3)c2C1=O` [Example 39, 4-[3-(4-fluorophenyl)-1-methyl-1H-pyrazol-4-yl]-6-isobutyl-6,7-dihydro-5H-pyrrolo[3,4-b]pyridin-5-one], the half-maximal inhibitory concentration (IC50) in experiment [1] turned out to be 49.5 nM; in experiment [2], 241 nM. Also, the 50% effective concentration (EC50) in experiment [3] was 188 nM.

With `Cc1ccc(CN2Cc3nccc(-c4cn(C)nc4-c4ccc(F)cc4)c3C2=O)cn1` [Example 52, 4-[3-(4-fluorophenyl)-1-methyl-1H-pyrazol-4-yl]-6-[(6-methylpyridin-3-yl)methyl]-6,7-dihydro-5H-pyrrolo[3,4-b]pyridin-5-one], the IC50 in experiment [1] came to 19 nM; in experiment [2], 127 nM. The concentration for a half-maximal effect (EC50) in experiment [3] amounted to 60.7 nM.

In the case of `Cn1cc(CN2Cc3nccc(-c4cn(C)nc4-c4ccc(F)cc4)c3C2=O)cn1` [Example 26, 4-[3-(4-fluorophenyl)-1-methyl-1H-pyrazol-4-yl]-6-[(1-methyl-1H-pyrazol-4-yl)methyl]-6,7-dihydro-5H-pyrrolo[3,4-b]pyridin-5-one], the IC50 turned out to be 22.6 nM in experiment [1] and 123 nM in experiment [2]. Besides, the EC50 in experiment [3] stood at 125 nM.

Consider `COC[C@H]1CCC[C@H]1N1Cc2nccc(-c3cn(C)nc3-c3ccc(F)cc3)c2C1=O` [Example 44, 4-[3-(4-fluorophenyl)-1-methyl-1H-pyrazol-4-yl]-6-[(1R,2S)-2-(methoxymethyl)cyclopentyl]-6,7-dihydro-5H-pyrrolo[3,4-b]pyridin-5-one], for which the IC50 in experiment [1] is 70.8 nM; in experiment [2], 342 nM. In addition, the concentration for a half-maximal effect (EC50) in experiment [3] is 437 nM.

As to `COC(=O)C1(N2Cc3nccc(-c4cn(C)nc4-c4ccc(F)cc4)c3C2=O)CC1` [Example 31, methyl 1-{4-[3-(4-fluorophenyl)-1-methyl-1H-pyrazol-4-yl]-5-oxo-5,7-dihydro-6H-pyrrolo[3,4-b]pyridin-6-yl}cyclopropanecarboxylate], the IC50 in experiment [1] was found to be 48.1 nM; in experiment [2], 187 nM. Further, in experiment [3], the half-maximal effective concentration (EC50) amounted to 304 nM.

`Cn1cc(-c2ccnc3c2CN(Cc2ccccc2)C3)c(-c2ccc(F)cc2)n1` [Example 6, 6-benzyl-4-[3-(4-fluorophenyl)-1-methyl-1H-pyrazol-4-yl]-6,7-dihydro-5H-pyrrolo[3,4-b]pyridine]: the IC50 in experiment [1] was 61 nM; in experiment [2], 292 nM. For the same compound, in experiment [3], the concentration for a half-maximal effect (EC50) stood at 204 nM.

On to `Cn1cc(-c2ccnc3c2CCC3)c(-c2ccc(F)cc2)n1` [Example 23, 4-[3-(4-fluorophenyl)-1-methyl-1H-pyrazol-4-yl]-6,7-dihydro-5H-cyclopenta[b]pyridine], for which the IC50 in experiment [1] was determined as 25.4 nM; in experiment [2], 157 nM. Besides, the 50% effective concentration (EC50) in experiment [3] amounted to 214 nM.
